Six compounds from US6358983B1, “Heterocyclically substituted α-hydroxycarboxylic acid derivatives, method for producing the same and their use as endothelin receptor antagonists” (Abbott Laboratories, priority 1997, dated 2002) can be followed below.

For one assay, the target named is T1, human ETA receptor (Homo sapiens, UniProt P25101).
T1 construct: expressed in transfected cells; host or cells: CHO cells (membrane preparation)
T1 sequence (P25101 21-427): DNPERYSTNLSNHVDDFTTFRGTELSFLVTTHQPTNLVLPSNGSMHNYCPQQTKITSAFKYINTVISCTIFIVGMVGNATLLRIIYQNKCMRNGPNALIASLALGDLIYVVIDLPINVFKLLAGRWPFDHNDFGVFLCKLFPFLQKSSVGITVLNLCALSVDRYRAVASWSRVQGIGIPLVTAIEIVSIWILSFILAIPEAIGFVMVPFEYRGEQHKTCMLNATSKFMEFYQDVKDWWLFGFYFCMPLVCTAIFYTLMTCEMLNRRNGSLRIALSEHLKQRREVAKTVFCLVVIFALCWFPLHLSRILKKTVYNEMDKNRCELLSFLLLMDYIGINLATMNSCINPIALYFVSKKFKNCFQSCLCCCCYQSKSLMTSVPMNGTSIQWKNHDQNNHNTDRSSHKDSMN
Nature of the assay: ETA receptor binding test ([125I]-ET1, CHO cell membranes). The conditions noted are these: cloned human ETA receptor, 25 pM [125I]-ET1, 25° C., 30 min. The method, then: (§1) For binding studies, cloned human ETA or ETB receptor-expressing CHO cells were employed.
(§2) The ETA or ETB receptor-expressing CHO cells were proliferated in DMEM NUT MIX F12 medium (Gibco, No. 21331-020) using 10% fetal calf serum (PAA Laboratories GmbH, Linz, No. A15-022), 1 mM glutamine (Gibco No. 25030-024), 100 U/ml of penicillin and 100 μg/ml of streptomycin (Gibco, Sigma No P-0781). After 48 hours, the cells were washed with PBS and incubated at 37° C. for 5 minutes with 0.05% trypsin-containing PBS. Neutralization with medium was then carried out and the cells were collected by centrifugation at 300×g.
(§3) For the membrane preparation, the cells were adjusted to a concentration of 10^8 cells/ml of buffer (50 mM tris·HCL buffer, pH 7.4) and then disintegrated by means of ultrasound Branson Sonifier 250, 40-70 seconds/constant/output [sic] 20).
(§4) For the ETA and ETB receptor binding test, the membranes were suspended in incubation buffer (50 mM tris HCl, pH 7.4 with 5 mM MnCl2, […] of bacitracin and 0.2% BSA) in a concentration of 50 μg of protein per test batch and incubated at 25° C. with 25 pM [125I]-ET1 (ETA receptor test) or 25 pM [125I]-ET3 (ETB receptor test) in the presence or absence of test substance. The nonspecific binding was determined with 10^−7 M ET1. After 30 min, the free and the bound -radioligand were separated by filtration through GF/B glass fiber filters (Whatman, England) on a Skatron cell collector (Skatron, Lier, Norway) and the filters were washed with ice-cold tris HCl buffer, pH 7.4 with 0.2% BSA.
(§5) The radioactivity collected on the filters was quantified using a Packard 2200 CA liquid scintillation counter.
(§6) According to the binding test described above, receptor binding data were measured for the compounds shown below.

In the next assay the target is T2, human ETB receptor (Homo sapiens, UniProt P24530).
T2 construct: expressed in transfected cells; host or cells: CHO cells (membrane preparation)
T2 sequence (P24530 27-442): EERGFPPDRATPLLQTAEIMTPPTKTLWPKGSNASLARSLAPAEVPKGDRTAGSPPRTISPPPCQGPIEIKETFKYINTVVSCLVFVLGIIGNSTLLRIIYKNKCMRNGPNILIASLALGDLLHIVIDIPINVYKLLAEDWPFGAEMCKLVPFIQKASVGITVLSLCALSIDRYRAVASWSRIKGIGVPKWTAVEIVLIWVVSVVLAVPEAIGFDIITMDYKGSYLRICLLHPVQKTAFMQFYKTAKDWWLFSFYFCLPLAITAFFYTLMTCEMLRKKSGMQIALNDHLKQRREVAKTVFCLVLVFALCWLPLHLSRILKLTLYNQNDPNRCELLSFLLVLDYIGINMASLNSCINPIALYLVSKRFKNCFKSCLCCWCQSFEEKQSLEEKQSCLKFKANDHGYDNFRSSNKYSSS
Nature of the assay: ETB receptor binding test ([125I]-ET3, CHO cell membranes). The conditions noted are these: cloned human ETB receptor, 25 pM [125I]-ET3, 25° C., 30 min. The method, then:
as §1, §2, §3, §4, §5, §6

Structures are written as SMILES. Bounds are passed on as bounds.

By Ki is commonly meant a measure of affinity in units of concentration, obtained from inhibition or displacement. As to `COC(c1ccccc1)(c1ccccc1)[C@H](Oc1nc(C)c(C)s1)C(=O)O` [Compound I-1, (S)-2-(4,5-Dimethylthiazol-2-yloxy)-3-methoxy-3,3-diphenyl-propionic Acid], the results for the Ki at human ETA receptor and at human ETB receptor were 13 nM and 650 nM, respectively.
As for `COC(c1ccccc1)(c1ccccc1)[C@H](Oc1nc(C)c(C)o1)C(=O)O` [Compound I-4, (S)-2-(4,5-Dimethyloxazol-2-yloxy)-3-methoxy-3,3-diphenyl-propionic Acid], the figures for the Ki on human ETA receptor and at human ETB receptor were 29 nM and 3100 nM, respectively.
On to `COC(c1ccccc1)(c1ccccc1)[C@H](Oc1nc2c(s1)CCC2)C(=O)O` [Compound I-5, (S)-2-(4,5-Cyclopentenothiazol-2-yloxy)-3-methoxy-3,3-diphenyl-propionic Acid], for which the Ki at human ETA receptor was 50 nM; on human ETB receptor, greater than 700 nM.
As to `COC(c1ccccc1)(c1ccccc1)[C@H](Oc1nc2ccccc2s1)C(=O)O` [Compound I-6, (S)-2-(Benzothiazol-2-yloxy)-3-methoxy-3,3-diphenylpropionic Acid], the Ki at human ETA receptor was 900 nM; on human ETB receptor it was greater than 7100 nM.
Regarding `COc1ccc(CCOC(c2ccccc2)(c2ccccc2)C(Oc2nc(C)c(C)s2)C(=O)O)cc1OC` (stereo not drawn) [Compound I-13, 2-(4,5-Dimethylthiazol-2-yloxy)-3-(2-(3,4-dimethoxyphenyl)-ethoxy)-3,3-diphenylpropionic Acid], the values for the Ki on human ETA receptor and on human ETB receptor were 145 nM and 210 nM, respectively.
As for `COc1ccc(CCOC(c2ccccc2)(c2ccccc2)C(Oc2nc(C)c(C)o2)C(=O)O)cc1OC` (stereo not drawn) [Compound I-15, 2-(4,5-Dimethyloxazol-2-yloxy)-3-(2-(3,4-dimethoxyphenyl)-ethoxy)-3,3-diphenylpropionic Acid], the Ki is 215 nM at human ETA receptor and 485 nM at human ETB receptor.
